# Laboratory results published in paper PMC11219871, “Epigenetic-based differentiation therapy for Acute Myeloid Leukemia” (Nature Communications, 2024).
# Several values for one entry are separate records, joined by “and”; a condition that tells them apart may be missing. Equal entries are not always repeated.
# Assays:
# GF-D8 = assay: Cell proliferation assay: GI50; type: cell-based
# Procedure: (§1) Cell proliferation was analyzed using the CellTiter 96 Aqueous One Solution Cell Proliferation Assay (Promega, Madison, WI). This is a colorimetric method for determining the number of viable cells in proliferation. For the assay, suspension cells were cultured in triplicate at a density of 1 × 10^6 cells/mL in 96-well plates (100.000 cells/well, 100 µL/well), using only the 60 inner wells to avoid any border effects. After 48 h of treatment with different doses of each compound (0, 0.001, 0.01, 0.1, 0.2, 0.4, 0.6, 0.8, 1, 2, 3, 4, 5 and 10 µM), the plates were centrifuged at 800 g for 10 min followed by removal of the medium. Then, the cells were incubated with 100 μL/well of medium and 20 μL/well of CellTiter 96 Aqueous One Solution reagent for 1–3 h. The absorbance was recorded at 490 and 650 nm as reference wavelengths using 96-well plate readers until the absorbance of the control cells without treatment was approximately 0.8 AU. The background absorbance was measured in wells with only cell line medium and solution reagent. First, the average of the absorbance from the control wells was subtracted from all other absorbance values. Data were calculated as the percentage of total absorbance of treated cells/absorbance of non-treated cells. The GI50 values of the different compounds were determined using non-linear regression plots made with GraphPad Prism v5 software.
# NB-4 = assay: Cell proliferation assay: GI50; type: cell-based
# Procedure: as §1
# OCI-AML2 = assay: Cell proliferation assay: GI50; type: cell-based
# Procedure: as §1
# THP-1 = assay: Cell proliferation assay: GI50; type: cell-based
# Procedure: as §1
# ML-2 = assay: Differentiation-apoptosis assay, CD11b / annexin-V / Sytox Green / myeloid markers flow cytometry; type: cell-based, human; parameters: Cell viability: concentration or dose not given beside the values; CD11b levels: unit not given here; conditions: for CD11b / Cell viability: replicates (Fig 4A)
# Procedure: (§2) Next, the cells were washed twice with phosphate-buffered saline (PBS) and resuspended in 1X Binding Buffer at a concentration of 1 × 10^6 cells/mL. An 8-µL aliquot of APC-CD11b (BD Pharmingen, Franklin Lakes, NJ, USA) and 1 µL of FITC annexin-V (AV) (BD Pharmingen, Franklin Lakes, NJ, USA) antibodies were added and incubated for 15 min at room temperature in the dark. Finally, after the addition of 400 µL of 1X Binding Buffer to each tube, samples were collected on a BD FACSCanto flow cytometer (Becton Dickinson, San Jose, CA, USA) and analyzed using FlowJo software.
# (§3) For the rest of experiments, the mix of antibodies (2 µL of BV786-CD13, Cat No, 744748 BD; 1 µL of diluted 1:10 antibody of PB-HLADR, Cat No 307633, Biolegend; 5 µL of APCH7-CD14, Cat No 641394, BD) was added to 10 µL of Brilliant Stain Buffer Plus (Becton Dickinson, San Jose, CA, USA). Then, 1 million cells (volume of 250 µL) were added and incubated for 30 min at room temperature in darkness. After 10 min incubation at room temperature with 2 mL of FACSLysing 1X, cells were centrifuged at 540 g for 5 min and washed twice with FACSBuffer. Finally, after centrifugation at 540 g for 5 min cells were resuspended in FACSBuffer.
# MOLM-13 = assay: as above; type: cell-based, human; parameters: Cell viability (%): concentration or dose not given beside the values; CD11b levels: unit not given here
# Procedure: as §2, §3
# MV4-11 = assay: as above; type: cell-based, human; parameters: Cell viability (%): concentration or dose not given beside the values; CD11b levels: unit not given here
# Procedure: as §2, §3
# [1] = Homo sapiens, NB-4, NB-4, replicates 1-3
# [2] = Homo sapiens, OCI-AML2, OCI-AML2, replicates 1-3
# [3] = Homo sapiens, THP-1, replicates 1-3
# [4] = ML-2 cell line, replicates 1-3 (Figure 2A)
# [5] = MOLM-13 cell line, replicates 1-3 (Figure 2A)
# [6] = MV4-11 cell line, replicates 1-3 (Figure 2A)
# [7] = ML-2, daily treatment, time 0 days, replicates 1-3 (Figure 2B)
# [8] = ML-2, daily treatment, time 2 days, replicates 1-3 (Figure 2B)
# [9] = ML-2, daily treatment, time 4 days, replicates 1-3 (Figure 2B)
# [10] = ML-2, daily treatment, time 6 days, replicates 1-3 (Figure 2B)
# [11] = ML-2, daily treatment, time 8 days, replicates 1-3 (Figure 2B)
# [12] = MOLM-13, 48 h treatment, replicates 1-3 (Suppl. Fig. 5A)
# [13] = MOLM-13, daily treatment, time 0 days
# [14] = MOLM-13, daily treatment, time 2 days
# [15] = MOLM-13, daily treatment, time 4 days
# [16] = MOLM-13, daily treatment, time 6 days
# [17] = MOLM-13, daily treatment, time 8 days
# [18] = MV4-11, 48 h treatment, replicates 1-3 (Suppl. Fig. 5A)
# [19] = MV4-11, daily treatment, time 0 days
# [20] = MV4-11, daily treatment, time 2 days
# [21] = MV4-11, daily treatment, time 4 days
# [22] = MV4-11, daily treatment, time 6 days
smiles,measurement,setting,value
"CC1=C(/C=C/C(C)=C/C=C/C(C)=C/C(=O)O)C(C)(C)CCC1 [ATRA, all-trans retinoic acid, reference compound]",GI50,"GF-D8; 48 h, GF-D8, 48 h",> 10 µM
same,GI50,"GF-D8; GF-D8, replicates 1-3",> 10 µM
same,GI50,"NB-4; Homo sapiens, NB-4, 48 h",> 10 µM
same,GI50,NB-4; [1],> 10 µM
same,GI50,"NB-4; NB-4, replicates 1-3",> 10 µM
same,GI50,"OCI-AML2; Homo sapiens, OCI-AML2, 48 h",> 10 µM
same,GI50,OCI-AML2; [2],> 10 µM
same,GI50,"OCI-AML2; OCI-AML2, replicates 1-3",> 10 µM
same,GI50,"THP-1; Homo sapiens, THP-1, 48 h",> 10 µM
same,GI50,THP-1; [3],> 10 µM
same,GI50,"THP-1; THP-1, replicates 1-3",> 10 µM
same,CD11b (%),ML-2; [4],5.2% and 4.2% and 6.05%
same,CD11b (%),MOLM-13; [5],26.9% and 23.1% and 27.34%
same,CD11b (%),MV4-11; [6],9.6% and 4.7% and 11.86%
"COc1cc2nc(-c3ccc(C)o3)cc(NCC3CCN(c4ncc(C(=O)NO)cn4)CC3)c2cc1OC [CM-444, 2-[4-[[[6,7-dimethoxy-2-(5-methyl-2-furyl)-4-quinolyl]amino]methyl]-1-piperidyl]pyrimidine-5-carbohydroxamic acid]",GI50,"GF-D8; GF-D8, replicates 1-3",7.25 µM and 4.12 µM and 3.69 µM
same,GI50,"NB-4; Homo sapiens, NB-4, 48 h",0.668 µM
same,GI50,NB-4; [1],0.658 µM
same,GI50,"NB-4; NB-4, replicates 1-3",0.785 µM and 0.563 µM
same,GI50,"OCI-AML2; Homo sapiens, OCI-AML2, 48 h",0.64 µM
same,GI50,OCI-AML2; [2],0.736 µM
same,GI50,"OCI-AML2; OCI-AML2, replicates 1-3",0.574 µM and 0.612 µM
same,GI50,"THP-1; Homo sapiens, THP-1, 48 h",> 10 µM
same,GI50,THP-1; [3],> 10 µM
same,GI50,"THP-1; THP-1, replicates 1-3",> 10 µM
same,percentage of CD11b,"ML-2; ML-2, 260 nM CM-444 or 210 nM CM-1758 daily for 4 days, before injection",> 90%
same,CD11b (%),"ML-2; ML-2, 48 h",80.1%
same,CD13 (%),"ML-2; ML-2, 48 h",100%
same,CD14 (%),"ML-2; ML-2, 48 h",5.20%
same,HLA-DR (%),"ML-2; ML-2, 48 h",35.7%
same,CD11b,"ML-2; ML-2, 48 h",89.5% and 75.9% and 74.5%
same,Cell viability,"ML-2; ML-2, 48 h",80.4% and 75.1% and 78.2%
same,differentiation level (CD11b),"ML-2; ML-2, after 6–8 days of treatment",~90%
same,Annexin-V (%),ML-2; [7],0% and 1.81% and 2.3%
same,CD11b (%),ML-2; [7],9.3% and 9.32% and 7.24%
same,Annexin-V (%),ML-2; [8],0% and 8.27% and 5.87%
same,CD11b (%),ML-2; [8],24.52% and 30.8% and 32.5%
same,Annexin-V (%),ML-2; [9],7.16% and 8.18% and 7.5%
same,CD11b (%),ML-2; [9],47.58% and 64.3% and 58.4%
same,Annexin-V (%),ML-2; [10],12.1% and 4.47% and 9.8%
same,CD11b (%),ML-2; [10],89.87% and 81.3% and 87.3%
same,Annexin-V (%),ML-2; [11],10.64% and 10.25% and 11.25%
same,CD11b (%),ML-2; [11],92.1% and 91.7% and 93.4%
same,CD11b (%),ML-2; [4],86.3% and 76.9% and 74.7%
same,CD11b levels,"ML-2; ML-2 treated daily for 48 h, replicates (Fig 6E)",70.9 and 75.6 and 72.7
same,CD11b (%),"MOLM-13; MOLM-13, 48 h",92.8%
same,CD13 (%),"MOLM-13; MOLM-13, 48 h",49.3%
same,CD14 (%),"MOLM-13; MOLM-13, 48 h",66.5%
same,HLA-DR (%),"MOLM-13; MOLM-13, 48 h",35.1%
same,CD11b (%),MOLM-13; [12],94.2% and 88.9% and 85.7%
same,Cell viability (%),MOLM-13; [12],70.2% and 63.7% and 70.7%
same,differentiation level (CD11b),"MOLM-13; MOLM-13, after 6–8 days of treatment",~90%
same,CD11b levels,"MOLM-13; MOLM-13, daily treatment for 48 h, replicates 1-3 (Suppl. Fig. 9A)",43.6 and 50.7 and 40.2
same,Annexin-V (%),MOLM-13; [13],4.46% and 6.55% and 4.89%
same,CD11b (%),MOLM-13; [13],6.62% and 4.5% and 6.9%
same,Annexin-V (%),MOLM-13; [14],24.6% and 15.6% and 17.4%
same,CD11b (%),MOLM-13; [14],63% and 58.9% and 57.2%
same,Annexin-V (%),MOLM-13; [15],66.7% and 40.3% and 35.6%
same,CD11b (%),MOLM-13; [15],60% and 65.3% and 63.1%
same,Annexin-V (%),MOLM-13; [16],72.2% and 50.7% and 45.3%
same,CD11b (%),MOLM-13; [16],66.7% and 70.8% and 65.2%
same,Annexin-V (%),MOLM-13; [17],68.1% and 55.1% and 49.2%
same,CD11b (%),MOLM-13; [17],68.9% and 75.7% and 73.6%
same,CD11b (%),MOLM-13; [5],73.8% and 63.3% and 68.4%
same,CD11b (%),"MV4-11; MV4-11, 48 h",58.9%
same,CD13 (%),"MV4-11; MV4-11, 48 h",98.0%
same,CD14 (%),"MV4-11; MV4-11, 48 h",57.6%
same,HLA-DR (%),"MV4-11; MV4-11, 48 h",42.1%
same,CD11b (%),MV4-11; [18],53.8% and 54.1% and 56.8%
same,Cell viability (%),MV4-11; [18],72.5% and 67.1% and 68%
same,differentiation level (CD11b),"MV4-11; MV4-11, after 6–8 days of treatment",~90%
same,CD11b levels,"MV4-11; MV4-11, daily treatment for 48 h, replicates 1-3 (Suppl. Fig. 9A)",39.5 and 43.7 and 45.9
same,Annexin-V (%),MV4-11; [19],5.32% and 4.14% and 5.2%
same,CD11b (%),MV4-11; [19],11.1% and 6.62% and 5.25%
same,Annexin-V (%),MV4-11; [20],28.1% and 26.8% and 25.7%
same,CD11b (%),MV4-11; [20],30.2% and 35.8% and 36.8%
same,Annexin-V (%),MV4-11; [21],38.5% and 41.2% and 41.8%
same,CD11b (%),MV4-11; [21],53.4% and 55% and 51.8%
same,Annexin-V (%),MV4-11; [22],79.6% and 81.2% and 80.7%
same,CD11b (%),MV4-11; [22],74.9% and 73.2% and 74.5%
same,CD11b (%),MV4-11; [6],41.7% and 49.8% and 50.4%
"Cc1[nH]c2ccccc2c1CCNCc1ccc(/C=C/C(=O)NO)cc1 [Panobinostat, reference compound]",CD11b,"ML-2; ML-2, 48 h",36.1% and 27.0% and 28.8%
same,Cell viability,"ML-2; ML-2, 48 h",69.0% and 63.1% and 66.5%
same,CD11b (%),MOLM-13; [12],39.6% and 32.7% and 32.0%
same,Cell viability (%),MOLM-13; [12],45.5% and 59.6% and 57.8%
same,CD11b (%),MV4-11; [18],12.9% and 19.4% and 18.7%
same,Cell viability (%),MV4-11; [18],38.3% and 43.2% and 44.2%
"O=C(CCCCCCC(=O)Nc1ccccc1)NO [Vorinostat, reference compound]",CD11b,"ML-2; ML-2, 48 h",25.0% and 20.7% and 16.1%
same,Cell viability,"ML-2; ML-2, 48 h",86.1% and 82.9% and 82.7%
same,CD11b (%),MOLM-13; [12],37.1% and 43.8% and 41.2%
same,Cell viability (%),MOLM-13; [12],69.1% and 74.5% and 73.9%
same,CD11b (%),MV4-11; [18],15.2% and 20.7% and 19.4%
same,Cell viability (%),MV4-11; [18],86.1% and 89% and 91%
